For this test, the system named is NL-RLuc virus. The experiment in a line: Inhibition of HIV replication (NL-RLuc reporter virus in MT-2 cells, luciferase readout). The format is cell-based. The note with it: Human immunodeficiency virus 1, MT2, 120 h; for pEC50: read-out: Activity; for EC50: read-out: EC50 μM. The gist of the method: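 Antiviral EC50 came from luciferase signal after 5-day multicycle replication of NL-RLuc virus in MT-2 cells with serially diluted compound (RPMI 1640, 10% heat-inactivated FBS), fitted by the median effect equation over at least 2 experiments.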

pEC50: −log10 of the molar value. Where two headings read alike, the source gives them in different places.

As to `COc1cc(C(F)(F)F)ccc1CN1CCc2cc(-c3c(C)nc(C)c([C@H](OC(C)(C)C)C(=O)O)c3N3CCC(C)(C)CC3)ccc2C1` [Compound 109, (S)-2-(tert-butoxy)-2-(4-(4,4-dimethylpiperidin-1-yl)-5-(2-(2-methoxy-4-(trifluoromethyl)benzyl)-1,2,3,4-tetrahydroisoquinolin-6-yl)-2,6-dimethylpyridin-3-yl)acetic acid], the pEC50 was more than 7.00.
In general, EC50 refers to the midpoint of the concentration-response curve. Turning to `Cc1nc(C)c([C@H](OC(C)(C)C)C(=O)O)c(N2CCC(C)(C)CC2)c1-c1ccc2c(c1)CCN(Cc1cccc(OC(F)(F)F)c1)C2` [Compound 110, (S)-2-(tert-butoxy)-2-(4-(4,4-dimethylpiperidin-1-yl)-2,6-dimethyl-5-(2-(3-(trifluoromethoxy)benzyl)-1,2,3,4-tetrahydroisoquinolin-6-yl)pyridin-3-yl)acetic acid], the pEC50 is more than 7.00 and the concentration giving a half-maximal response (EC50) turned out to be 0.008 µM.
For `Cc1nc(C)c([C@H](OC(C)(C)C)C(=O)O)c(N2CCC(C)(C)CC2)c1-c1ccc2c(c1)CCN(Cc1cc(F)cc(OC(F)(F)F)c1)C2` [Compound 111, (S)-2-(tert-butoxy)-2-(4-(4,4-dimethylpiperidin-1-yl)-5-(2-(3-fluoro-5-(trifluoromethoxy)benzyl)-1,2,3,4-tetrahydroisoquinolin-6-yl)-2,6-dimethylpyridin-3-yl)acetic acid], the pEC50 is more than 7.00.
In the case of `COc1cc(CN2CCc3cc(-c4c(C)nc(C)c([C@H](OC(C)(C)C)C(=O)O)c4N4CCC(C)(C)CC4)ccc3C2)cc(C(F)(F)F)c1` [Compound 112, (S)-2-(tert-butoxy)-2-(4-(4,4-dimethylpiperidin-1-yl)-5-(2-(3-methoxy-5-(trifluoromethyl)benzyl)-1,2,3,4-tetrahydroisoquinolin-6-yl)-2,6-dimethylpyridin-3-yl)acetic acid], the pEC50 was more than 7.00.
Consider `Cc1nc(C)c([C@H](OC(C)(C)C)C(=O)O)c(N2CCC(C)(C)CC2)c1-c1ccc2c(c1)CCN(Cc1cc(Cl)cc(OC(F)(F)F)c1)C2` [Compound 113, (S)-2-(tert-butoxy)-2-(5-(2-(3-chloro-5-(trifluoromethoxy)benzyl)-1,2,3,4-tetrahydroisoquinolin-6-yl)-4-(4,4-dimethylpiperidin-1-yl)-2,6-dimethylpyridin-3-yl)acetic acid], for which the pEC50 is more than 7.00.
The same measure, in the same setting: the value for `Cc1nc(C)c([C@H](OC(C)(C)C)C(=O)O)c(N2CCC(C)(C)CC2)c1-c1ccc2c(c1)CCN(Cc1ccccc1OC(F)F)C2` [Compound 114, (S)-2-(tert-butoxy)-2-(5-(2-(2-(difluoromethoxy)benzyl)-1,2,3,4-tetrahydroisoquinolin-6-yl)-4-(4,4-dimethylpiperidin-1-yl)-2,6-dimethylpyridin-3-yl)acetic acid] was more than 7.00; that for `COc1cccc(F)c1CN1CCc2cc(-c3c(C)nc(C)c([C@H](OC(C)(C)C)C(=O)O)c3N3CCC(C)(C)CC3)ccc2C1` [Compound 115, (S)-2-(tert-butoxy)-2-(4-(4,4-dimethylpiperidin-1-yl)-5-(2-(2-fluoro-6-methoxybenzyl)-1,2,3,4-tetrahydroisoquinolin-6-yl)-2,6-dimethylpyridin-3-yl)acetic acid] was more than 7.00.
With `COc1ccc(F)c(CN2CCc3cc(-c4c(C)nc(C)c([C@H](OC(C)(C)C)C(=O)O)c4N4CCC(C)(C)CC4)ccc3C2)c1` [Compound 116, (S)-2-(tert-butoxy)-2-(4-(4,4-dimethylpiperidin-1-yl)-5-(2-(2-fluoro-5-methoxybenzyl)-1,2,3,4-tetrahydroisoquinolin-6-yl)-2,6-dimethylpyridin-3-yl)acetic acid], the pEC50 was more than 7.00 and the EC50 turned out to be 0.002 µM.
Regarding `COc1cc(F)ccc1CN1CCc2cc(-c3c(C)nc(C)c([C@H](OC(C)(C)C)C(=O)O)c3N3CCC(C)(C)CC3)ccc2C1` [Compound 117, (S)-2-(tert-butoxy)-2-(4-(4,4-dimethylpiperidin-1-yl)-5-(2-(4-fluoro-2-methoxybenzyl)-1,2,3,4-tetrahydroisoquinolin-6-yl)-2,6-dimethylpyridin-3-yl)acetic acid], the pEC50 is more than 7.00.
Still for that read-out and setting: to `Cc1nc(C)c([C@H](OC(C)(C)C)C(=O)O)c(N2CCC(C)(C)CC2)c1-c1ccc2c(c1)CCN(Cc1cccc(OC(F)F)c1)C2` [Compound 118, (S)-2-(tert-butoxy)-2-(5-(2-(3-(difluoromethoxy)benzyl)-1,2,3,4-tetrahydroisoquinolin-6-yl)-4-(4,4-dimethylpiperidin-1-yl)-2,6-dimethylpyridin-3-yl)acetic acid] belongs more than 7.00; to `COc1ccc(C)cc1CN1CCc2cc(-c3c(C)nc(C)c([C@H](OC(C)(C)C)C(=O)O)c3N3CCC(C)(C)CC3)ccc2C1` [Compound 119, (S)-2-(tert-butoxy)-2-(4-(4,4-dimethylpiperidin-1-yl)-5-(2-(2-methoxy-5-methylbenzyl)-1,2,3,4-tetrahydroisoquinolin-6-yl)-2,6-dimethylpyridin-3-yl)acetic acid], more than 7.00.
The same measure, in the same setting: to `Cc1nc(C)c([C@H](OC(C)(C)C)C(=O)O)c(N2CCC(C)(C)CC2)c1-c1ccc2c(c1)CCN(Cc1ccc(F)c(OC(F)(F)F)c1)C2` [Compound 120, (S)-2-(tert-butoxy)-2-(4-(4,4-dimethylpiperidin-1-yl)-5-(2-(4-fluoro-3-(trifluoromethoxy)benzyl)-1,2,3,4-tetrahydroisoquinolin-6-yl)-2,6-dimethylpyridin-3-yl)acetic acid] belongs more than 7.00; to `Cc1nc(C)c([C@H](OC(C)(C)C)C(=O)O)c(N2CCC(C)(C)CC2)c1-c1ccc2c(c1)CCN(Cc1cccc(OC(F)(F)C(F)F)c1)C2` [Compound 121, (S)-2-(tert-butoxy)-2-(4-(4,4-dimethylpiperidin-1-yl)-2,6-dimethyl-5-(2-(3-(1,1,2,2-tetrafluoroethoxy)benzyl)-1,2,3,4-tetrahydroisoquinolin-6-yl)pyridin-3-yl)acetic acid], more than 7.00; to `COc1cc(F)cc(CN2CCc3cc(-c4c(C)nc(C)c([C@H](OC(C)(C)C)C(=O)O)c4N4CCC(C)(C)CC4)ccc3C2)c1` [Compound 122, (S)-2-(tert-butoxy)-2-(4-(4,4-dimethylpiperidin-1-yl)-5-(2-(3-fluoro-5-methoxybenzyl)-1,2,3,4-tetrahydroisoquinolin-6-yl)-2,6-dimethylpyridin-3-yl)acetic acid], more than 7.00.
Turning to `Cc1nc(C)c([C@H](OC(C)(C)C)C(=O)O)c(N2CCC(C)(C)CC2)c1-c1ccc2c(c1)CCN(Cc1ccccc1OC(F)(F)F)C2` [Compound 123, (S)-2-(tert-butoxy)-2-(4-(4,4-dimethylpiperidin-1-yl)-2,6-dimethyl-5-(2-(2-(trifluoromethoxy)benzyl)-1,2,3,4-tetrahydroisoquinolin-6-yl)pyridin-3-yl)acetic acid], the pEC50 was more than 7.00 and the EC50 is 0.011 µM.
For the compound `COc1ccc(F)cc1CN1CCc2cc(-c3c(C)nc(C)c([C@H](OC(C)(C)C)C(=O)O)c3N3CCC(C)(C)CC3)ccc2C1` [Compound 124, (S)-2-(tert-butoxy)-2-(4-(4,4-dimethylpiperidin-1-yl)-5-(2-(5-fluoro-2-methoxybenzyl)-1,2,3,4-tetrahydroisoquinolin-6-yl)-2,6-dimethylpyridin-3-yl)acetic acid], the pEC50 is more than 7.00.
In the case of `Cc1nc(C)c([C@H](OC(C)(C)C)C(=O)O)c(N2CCC(C)(C)CC2)c1-c1ccc2c(c1)CCN(Cc1ccc(OC(F)(F)C(F)F)cc1)C2` [Compound 125, (S)-2-(tert-butoxy)-2-(4-(4,4-dimethylpiperidin-1-yl)-2,6-dimethyl-5-(2-(4-(1,1,2,2-tetrafluoroethoxy)benzyl)-1,2,3,4-tetrahydroisoquinolin-6-yl)pyridin-3-yl)acetic acid], the pEC50 is more than 7.00.
On to `CCOc1cc(CN2CCc3cc(-c4c(C)nc(C)c([C@H](OC(C)(C)C)C(=O)O)c4N4CCC(C)(C)CC4)ccc3C2)c(F)cc1F` [Compound 126, (S)-2-(tert-butoxy)-2-(4-(4,4-dimethylpiperidin-1-yl)-5-(2-(5-ethoxy-2,4-difluorobenzyl)-1,2,3,4-tetrahydroisoquinolin-6-yl)-2,6-dimethylpyridin-3-yl)acetic acid], for which the pEC50 is more than 7.00.
The same measure, in the same setting: to `Cc1nc(C)c([C@H](OC(C)(C)C)C(=O)O)c(N2CCC(C)(C)CC2)c1-c1ccc2c(c1)CCN(Cc1ccc(Cl)c(Cl)c1)C2` [Compound 127, (S)-2-(tert-butoxy)-2-(5-(2-(3,4-dichlorobenzyl)-1,2,3,4-tetrahydroisoquinolin-6-yl)-4-(4,4-dimethylpiperidin-1-yl)-2,6-dimethylpyridin-3-yl)acetic acid] belongs more than 7.00; to `Cc1nc(C)c([C@H](OC(C)(C)C)C(=O)O)c(N2CCC(C)(C)CC2)c1-c1ccc2c(c1)CCN(Cc1c(Cl)cccc1Cl)C2` [Compound 128, (S)-2-(tert-butoxy)-2-(5-(2-(2,6-dichlorobenzyl)-1,2,3,4-tetrahydroisoquinolin-6-yl)-4-(4,4-dimethylpiperidin-1-yl)-2,6-dimethylpyridin-3-yl)acetic acid], more than 7.00.
Turning to `COc1cccc(CN2CCc3cc(-c4c(C)nc(C)c([C@H](OC(C)(C)C)C(=O)O)c4N4CCC(C)(C)CC4)ccc3C2)c1Cl` [Compound 129, (S)-2-(tert-butoxy)-2-(5-(2-(2-chloro-3-methoxybenzyl)-1,2,3,4-tetrahydroisoquinolin-6-yl)-4-(4,4-dimethylpiperidin-1-yl)-2,6-dimethylpyridin-3-yl)acetic acid], the pEC50 was more than 7.00 and the EC50 was 0.003 µM.
Consider `Cc1nc(C)c([C@H](OC(C)(C)C)C(=O)O)c(N2CCC(C)(C)CC2)c1-c1ccc2c(c1)CCN(Cc1cccc(Cl)c1F)C2` [Compound 130, (S)-2-(tert-butoxy)-2-(5-(2-(3-chloro-2-fluorobenzyl)-1,2,3,4-tetrahydroisoquinolin-6-yl)-4-(4,4-dimethylpiperidin-1-yl)-2,6-dimethylpyridin-3-yl)acetic acid], for which the pEC50 is more than 7.00.

Source of the values: patent US10189816B2, “Substituted pyridines as inhibitors of human immunodeficiency virus replication” (priority 2015, dated 2019).
